Experimental data published in patent US20070015723A1, “Antiviral oligonucleotides having a conserved G4 core sequence” (priority 1992, published 2007).
“And” between values parts separate entries of the source, which are not always exact repeats. Equal entries are not always repeated. Strand notation (5' to 3'): a small letter for the sugar, then the base; units joined by * are phosphorothioate-linked, units joined directly phosphodiester-linked; [ ] holds rarer units or linkages, { } end groups; capitals alone tell only the bases. {Fluor} = fluorescein moiety via fluorescein-labeled amidite; d = 2'-deoxy (DNA)

Tests used:
[1] = test system: Adenovirus, Type 5 (A-5), strain Adenoid 75; format: cell-based
[2] = test system: respiratory syncytial virus (RSV) strain Long; format: cell-based
[3] = test system: rhinovirus 2 (R-2), strain HGP; format: cell-based, human rhinovirus
[4] = test system: influenza strain A/NWS/33 (H1N1); format: cell-based, influenza virus
[5] = test system: HSV-1 (KOS); test: HSV-1 infection ELISA assay; format: cell-based
[6] = test system: human cytomegalovirus; test: Cytomegalovirus inhibition ELISA assay; format: cell-based; details: HCMV
[7] = target: T1, human type II phospholipase A2 (Homo sapiens, UniProt P14555); test: Human type II phospholipase A2 enzyme assay (3H-oleic acid labelled E. coli substrate); format: biochemical; details: 1 μM
T1 sequence (P14555 21-144): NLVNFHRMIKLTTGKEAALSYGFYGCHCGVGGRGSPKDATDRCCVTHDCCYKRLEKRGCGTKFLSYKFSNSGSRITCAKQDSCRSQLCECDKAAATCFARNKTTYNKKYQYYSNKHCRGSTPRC

[8] = test system: HIV-1IIIB; test: Acute HIV infection assay (XTT, CEM cells); details: inhibition of HIV
[9] = test system: HIV-1IIIB
[10] = test system: CEM cell line
[11] = test system: HSV-1 (KOS); test: HSV-1 virus yield assay; format: cell-based; details: for anti-HSV activity in virus yield assay: FIG. 2
[12] = 50% inhibition of HSV replication relative to control infected cells, Table 1
[13] = Table 5, two separate experiments

Molecule	EC50 [5, 12]	IC50 [8]	further results
NC(=O)c1ncn([C@@H]2O[C@H](CO)[C@@H](O)[C@H]2O)n1 [Ribavirin]	–	–	ED50 [1]: 82000 nM; ED50 [2]: 49000 nM; ED50 [3]: 229000 nM; ED50 [4]: 7780 nM
ISIS 4560: GGGG C GGGG C GGGG C GGGG C G, P = S, SEQ ID NO 42 (dG*dG*dG*dG*dC*dG*dG*dG*dG*dC*dG*dG*dG*dG*dC*dG*dG*dG*dG*dC*dG)	180 nM	140 nM	IC50 [6]: 150 nM; % Inhibition (1 μM) ([7]; Table 4): 100%
ISIS 4672: GGG T GGG T ATA G, P = S, SEQ ID NO 50 (GGGTGGGTATAG; all phosphorothioate, sugars by position not given here)	200 nM	–	% Inhibition (1 μM) [7, 13]: 73.9% and 94.6%
ISIS 4717: GG GGT TGG GG, P = S, SEQ ID NO 26 (GGGGTTGGGG; all phosphorothioate, sugars by position not given here)	600 nM	410 nM	IC50 [6]: 1000 nM; % Inhibition (1 μM) [7, 13]: 83.1%
ISIS 4872: GGC GGG ACT ACG GGG, P = S, SEQ ID NO 11 (GGCGGGACTACGGGG; all phosphorothioate, sugars by position and methylation of C not given here)	1900 nM and 1700 nM	–	–
ISIS 4873: CAT GAC CGG GGC, P = S, SEQ ID NO 4 (CATGACCGGGGC; all phosphorothioate, sugars by position and methylation of C not given here)	1400 nM and 1000 nM	1000 nM	–
ISIS 4874: AGG CAT GAC CGG GGC, P = S, SEQ ID NO 3 (AGGCATGACCGGGGC; all phosphorothioate, sugars by position and methylation of C not given here)	1100 nM and 830 nM	–	–
ISIS 4882: CAT GGC GGG ACT ACG, P = S, SEQ ID NO 9 (CATGGCGGGACTACG; all phosphorothioate, sugars by position and methylation of C not given here)	1700 nM and 1400 nM	–	–
ISIS 4885: A GAC CGG GGT TGG GG, P = S, SEQ ID NO 24 (AGACCGGGGTTGGGG; all phosphorothioate, sugars by position and methylation of C not given here)	420 nM and 510 nM	–	–
ISIS 4889: AGG GGA ATC CGT CAT, P = S, SEQ ID NO 14 (AGGGGAATCCGTCAT; all phosphorothioate, sugars by position and methylation of C not given here)	2000 nM	–	–
ISIS 4890: GCC AGG GGA ATC CGT, P = S, SEQ ID NO 15 (GCCAGGGGAATCCGT; all phosphorothioate, sugars by position and methylation of C not given here)	750 nM and 700 nM	–	–
ISIS 4894: CAT CGC CGA TCG GGG, P = S, SEQ ID NO 18 (CATCGCCGATCGGGG; all phosphorothioate, sugars by position and methylation of C not given here)	> 3000 nM	–	–
ISIS 4895: CGC CGA TGC GGG GCG, P = S, SEQ ID NO 19 (CGCCGATGCGGGGCG; all phosphorothioate, sugars by position and methylation of C not given here)	550 nM	–	–
ISIS 4896: GC CGA TGC GGG G, P = S, SEQ ID NO 20 (GCCGATGCGGGG; all phosphorothioate, sugars by position and methylation of C not given here)	1200 nM	–	–
ISIS 4897: CAC GGG GTC GCC GAT, P = S, SEQ ID NO 31 (CACGGGGTCGCCGAT; all phosphorothioate, sugars by position and methylation of C not given here)	130 nM	430 nM	–
ISIS 4925: GTT GGA GAC CGG IGT TGG IG, Inosine #13, 19, SEQ ID NO 137 (GTT GGA GAC CGG IGTTGG IG; inosine at 13, 19, as printed in the source, key not given here)	–	–	EC50 ([5]; Table 12, inosine-substituted): 1600 nM
ISIS 5295: GTT GGA GAC CGG GIT TGG GG, Inosine #14, SEQ ID NO 138 (GTT GGA GAC CGG GITTGG GG; inosine at 14, as printed in the source, key not given here)	–	–	EC50 ([5]; Table 12, inosine-substituted): > 3000 nM

Molecule	EC50 [5, 12]	IC50 [8]	further results
ISIS 5296: GTT GGA GAC CGG GGT TGG IG, Inosine #19, SEQ ID NO 139 (GTT GGA GAC CGG GGTTGG IG; inosine at 19, as printed in the source, key not given here)	–	–	EC50 ([5]; Table 12, inosine-substituted): 800 nM
ISIS 5302: CAC GAA AGG CAT GAC, P = S, SEQ ID NO 7 (CACGAAAGGCATGAC; all phosphorothioate, sugars by position and methylation of C not given here)	> 3000 nM	–	–
ISIS 5309: GTT GGA GAC CGI GGT TGG GG, Inosine #12, SEQ ID NO 140 (GTT GGA GAC CGI GGTTGG GG; inosine at 12, as printed in the source, key not given here)	–	–	EC50 ([5]; Table 12, inosine-substituted): > 3000 nM
ISIS 5310: GTT GGA GAC CGG GGT TGG GI, Inosine #20, SEQ ID NO 141 (GTT GGA GAC CGG GGTTGG GI; inosine at 20, as printed in the source, key not given here)	–	–	EC50 ([5]; Table 12, inosine-substituted): 400 nM
ISIS 5339: sequence of 1082 (SEQ ID NO 134) with a fluorescein moiety conjugated to the 5′ end (GCCGAGGTCCATGTCGTACGC; DNA, 5' {Fluor}, backbone not given here)	–	–	EC50 ([5]; Table 13, fluorescein-conjugated): 650 nM
ISIS 5356: CGG GGT TGG GG, P = S, SEQ ID NO 25 (CGGGGTTGGGG; all phosphorothioate, sugars by position and methylation of C not given here)	700 nM	–	–
ISIS 5365: GA GAC CGG GGT TGG GG, P = S, SEQ ID NO 23 (GAGACCGGGGTTGGGG; all phosphorothioate, sugars by position and methylation of C not given here)	470 nM	–	–
ISIS 5366: TTGGGGTTGGGGTTGGGGTTG GGGG, P = S, SEQ ID NO 33 (TTGGGGTTGGGGTTGGGGTTGGGGG; all phosphorothioate, sugars by position not given here)	160 nM	80 nM and 100 nM	IC50 [6]: 100 nM; TI (TC50/IC50) [9]: 220; TC50 [10]: 22000 nM
ISIS 5590: GGGG TT GGGG, P = O, SEQ ID NO 46 (GGGGTTGGGG; all phosphodiester, sugars by position not given here)	> 3000 nM	> 25000 nM	TC50 [10]: 20000 nM
ISIS 5651: TT GGGG TT GGGG TT GGGG TT GGGG, P = S, SEQ ID NO 35 (TTGGGGTTGGGGTTGGGGTTGGGG; all phosphorothioate, sugars by position not given here)	170 nM	100 nM and 180 nM	anti-HSV activity in virus yield assay [11]: dose-dependent anti-HSV activity; antiviral activity in virus yield assay ([11]; dose of 3 mM, FIG. 1): greater antiviral activity than did Acyclovir; TI (TC50/IC50) [9]: 175
ISIS 5653: TT GGGG TT GGGG TT GGGG, P = S, SEQ ID NO 38 (TTGGGGTTGGGGTTGGGG; all phosphorothioate, sugars by position not given here)	200 nM	120 nM	anti-HSV activity in virus yield assay [11]: dose-dependent anti-HSV activity; TC50 [10]: 27000 nM
ISIS 5667: TT GGGG TT GGGG TT, P = O, SEQ ID NO 56 (TTGGGGTTGGGGTT; all phosphodiester, sugars by position not given here)	–	> 22000 nM	TC50 [10]: 5600 nM
ISIS 5668: TT GGGG TT GGGG, P = O, SEQ ID NO 57 (TTGGGGTTGGGG; all phosphodiester, sugars by position not given here)	–	> 21000 nM	TC50 [10]: 5200 nM
ISIS 5674: TT GGGG TT GGGG, P = S, SEQ ID NO 41 (TTGGGGTTGGGG; all phosphorothioate, sugars by position not given here)	1500 nM	430 nM	TC50 [10]: >200000 nM
ISIS 5675: TT GGGG TT GGGG TT, P = S, SEQ ID NO 40 (TTGGGGTTGGGGTT; all phosphorothioate, sugars by position not given here)	420 nM	380 nM	TI (TC50/IC50) [9]: 36; TC50 [10]: 14000 nM
ISIS 5676: GGGG TT GGGG TT GGGG, P = S, SEQ ID NO 39 (GGGGTTGGGGTTGGGG; all phosphorothioate, sugars by position not given here)	230 nM	180 nM and 280 nM	anti-HSV activity in virus yield assay [11]: dose-dependent anti-HSV activity; TI (TC50/IC50) [9]: 114
ISIS 5677: GGGG TT GGGG TT GGGG TT GGGG, P = S, SEQ ID NO 36 (GGGGTTGGGGTTGGGGTTGGGG; all phosphorothioate, sugars by position not given here)	200 nM	100 nM and 190 nM	TI (TC50/IC50) [9]: 146
